{
  "source": "ChEMBL document CHEMBL1155681",
  "about": "“Structure and antibacterial activity ofp6 new labdane diterpenoid from Salvia leriaefolia” (2000)",
  "format_in_all_cases": "functional",
  "key": {"Escherichia coli": {"system": "Escherichia coli", "assay": "Antibacterial activity against Escherichia coli ATCC 25922"}, "Pseudomonas aeruginosa": {"system": "Pseudomonas aeruginosa", "assay": "Antibacterial activity against Pseudomonas aeruginosa ATCC 85327"}, "Staphylococcus aureus": {"system": "Staphylococcus aureus", "assay": "Antibacterial activity against Staphylococcus aureus ATCC 25923 at 0.4 mM", "settings": "read-out: IZ"}},
  "data": [
    {"smiles": "C=C/C(C)=C/C[C@H]1C(=C)C[C@H]2OC(=O)[C@@]3(C)CCC[C@@]1(C)[C@@H]23", "values": [
      {"measurement": "inhibition zone (IZ)", "setting": "Escherichia coli", "value": 13, "unit": "mm"},
      {"measurement": "inhibition zone (IZ)", "setting": "Pseudomonas aeruginosa", "value": 12, "unit": "mm"},
      {"measurement": "zone of inhibition at 400 µM", "setting": "Staphylococcus aureus", "value": 20, "unit": "mm"}
    ]}
  ]
}
